Experimental findings from patent publication US6177422A (Warner-Lambert Company, priority 1998, dated 2001) are described below.

In this assay the target is T1, human recombinant dopamine D4.2 receptor (Homo sapiens, UniProt P21917, DEL265-296).
T1 construct: expressed in transfected cells
T1 sequence (P21917 with tags, fused parts or gaps DEL265-296): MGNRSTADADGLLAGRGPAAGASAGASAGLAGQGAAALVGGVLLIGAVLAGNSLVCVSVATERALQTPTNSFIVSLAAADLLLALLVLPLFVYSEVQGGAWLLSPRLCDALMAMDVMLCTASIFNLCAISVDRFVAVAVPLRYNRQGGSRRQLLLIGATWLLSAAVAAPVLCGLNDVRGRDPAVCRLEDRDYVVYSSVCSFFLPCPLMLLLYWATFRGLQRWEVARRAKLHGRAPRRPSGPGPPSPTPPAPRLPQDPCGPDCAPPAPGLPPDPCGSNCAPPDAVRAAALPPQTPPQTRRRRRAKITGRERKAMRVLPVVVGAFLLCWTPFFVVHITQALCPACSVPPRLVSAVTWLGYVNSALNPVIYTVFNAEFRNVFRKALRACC
Put plainly: [3H]spiperone receptor binding assay, human dopamine D4.2, CHO K1 cell membranes.

pKi: −log10 of the molar value.

Usually pKi stands for the Ki on a negative log10 scale, so that one unit is a factor of ten.

As to `Cc1ccc(C2CCN(Cc3ccc4c(c3)NC(=O)CO4)CC2)cc1` [Example 16, 6-(4-p-Tolyl-piperidin-1-ylmethyl)-4H-benzo[1,4]oxazin-3-one], the pKi was 8.55.
Then `O=C1COc2ccc(CN3CCN(c4ccc(C(F)(F)F)cc4)CC3)cc2N1` [Example 31, 6-[4-(4-Trifluoromethyl-phenyl)-piperazin-1-ylmethyl]-4H-benzo[1,4]oxazin-3-one], with 6.76.
